Assay [1] has as its target T1, porcine pancreatic α-amylase (Sus scrofa, UniProt P00690).
T1 sequence (P00690 16-511): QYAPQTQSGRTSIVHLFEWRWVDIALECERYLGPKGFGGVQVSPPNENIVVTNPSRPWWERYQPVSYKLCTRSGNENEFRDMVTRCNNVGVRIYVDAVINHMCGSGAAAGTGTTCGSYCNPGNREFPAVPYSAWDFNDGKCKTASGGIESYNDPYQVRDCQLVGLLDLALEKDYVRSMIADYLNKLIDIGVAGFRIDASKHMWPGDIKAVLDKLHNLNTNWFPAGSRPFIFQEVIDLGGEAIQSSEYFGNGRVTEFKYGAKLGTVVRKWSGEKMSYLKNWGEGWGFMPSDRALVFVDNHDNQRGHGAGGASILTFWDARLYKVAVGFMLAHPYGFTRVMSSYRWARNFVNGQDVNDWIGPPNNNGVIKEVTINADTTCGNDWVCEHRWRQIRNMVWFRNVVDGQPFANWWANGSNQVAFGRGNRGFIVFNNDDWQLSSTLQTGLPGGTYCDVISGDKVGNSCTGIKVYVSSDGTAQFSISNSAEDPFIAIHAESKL
Nature of the assay: starch hydrolysis by α-amylase monitored by isothermal titration calorimetry (ITC). The format is biochemical. The settings on record: for remaining activity at 100 µM: 100 μM polyphenol; for inhibition mechanism suggested by Kic/Kiu ratios: polyphenol standards. As for the experimental part: The amylase stock solution was diluted each day and stored during the day at 4 °C.
The experiments were conducted using an Affinity ITC LV instrument with a cell volume of 182 μL (TA Instruments, Eschborn, Germany). […] These controls were conducted to determine the optimal injection volume to achieve maximal velocity (vmax) (S11). […] Enzyme kinetic constants were determined at 310 K.
The heat released during starch conversion was continuously monitored, with calculations performed using Microsoft Excel® software. The enzymatic rate (v) is directly proportional to the measured thermal power (eq (1)).(1) v=dP/dt=1/Vcell·ΔRHapp·dQ/dt
The reaction enthalpy ( ΔRHapp ) is determined by integrating the heat peak over its entire duration, divided by the number of substrate molecules converted:(2) ΔRHapp=∫t=0∞dQ/dtdt/nS
(dQ/dt)max [%], ΔRHapp [%] und vmax [%] are calculated in relation to daily control.
The substrate concentration at time t ([S]t) is calculated according to eq (3).(3) [S]t=∫t∞dQ/dtdt/∫0∞dQ/dtdt·[S]t=0
Therefore, the thermogram contains all the required data for calculating inhibition constants. The maximal conversion rate vmax and the Michaelis-Menten constant Km are determined from control experiments conducted in the absence of an inhibitor. In the presence of an inhibitor [I] the apparent values of vmaxapp and Kmapp are obtained. Competitive inhibition (Kic, eq (5)) is due to the formation of an enzyme-inhibitor complex (EI), whereas uncompetitive inhibition (Kiu, eq (5)) occurs when an inhibitor binds to a […]:(5) Kic=vmaxapp/Kmapp·[I]/(vmax/Km)−(vmaxapp/Kmapp)Kiu=vmaxapp·[I]/vmax−vmaxapp
The IC50 value, a key pharmacological metric, is used to compare the potency of inhibitors. […] The conversion rate (v0) was calculated from the thermogram according to eq (1), and subsequently plotted against the […]

For assay [2], the target named is α-amylase. As to conditions: substrate starch, DNS UV/Vis, cited from earlier work; for Ki: read-out: Kic.
Assay [3] has as its target α-amylase. On the set-up: method as in Kaeswurm et al. (2019). The settings on record: substrate GalG2CNP, CNP UV/Vis, ref Kaeswurm et al. (2019), cited from earlier work.
Assay [4] addresses α-amylase. On the set-up: key to Kic [μM] / Kiu [μM] / IC50 [μM]: “–” no inhibition. The settings on record: substrate starch, PAHBAH UV/Vis, cited from earlier work.
[5] abbreviates: 26 nM α-amylase, starch, 310 K, relative to control without inhibitor, read-out: (dQ/dt)max [%].
The mark [6] stands for this setting: relative to control, read-out: vmax [%].
[7] abbreviates: calculated based on the mass concentration.
Where [8] appears, read: calculated based on the mass concentration, read-out: IC50 [g/L] (converted).
[9] abbreviates: calculated based on the mass concentration, read-out: Kic [g/L] (converted).
Setting [10] is: calculated based on the mass concentration, read-out: Kiu [g/L] (converted).
[11] abbreviates: competitive inhibition constant, substrate starch, ITC, 100 μM polyphenol (EGCG 25 μM), read-out: Kic.
The mark [12] stands for this setting: substrate starch, ITC, calculated by eq (6), substrate concentration of 1 M (IC50 equivalent to Kiu), read-out: IC50*.
The mark [13] stands for this setting: uncompetitive inhibition constant, substrate starch, ITC, 100 μM polyphenol (EGCG 25 μM), read-out: Kiu.

Where two headings read alike, the source gives them in different places.

For `Oc1cc(O)c2c(c1)O[C@H](c1ccc(O)c(O)c1)[C@H](O)[C@H]2c1c(O)cc(O)c2c1O[C@H](c1ccc(O)c(O)c1)[C@H](O)[C@H]2c1c(O)cc(O)c2c1O[C@H](c1ccc(O)c(O)c1)[C@H](O)C2` [PC C1, procyanidin C1], the “reversibility of inhibition (from ΔRHapp)” value in assay [1] (100 μM polyphenol (EGCG 25 μM)) is reported as “irreversible aggregation”. The remaining activity at 100 µM is 44 ± 4% in assay [1] (setting [5]) and 50 ± 4% in assay [1] (setting [6]). The “α (Kic/Kiu)” value in assay [1] (setting [7]) was 0.90 ± 0.12. For the same molecule, the figures for the IC50 in assay [1] (setting [8]) and in assay [1] (setting [12]) were 104 µM and 103 ± 16 µM, respectively. The Ki was 92.3 µM in assay [1] (setting [9]), 104 µM in assay [1] (setting [10]), 94 ± 26 µM in assay [1] (setting [11]) and 103 ± 16 µM in assay [1] (setting [13]).
As to `C[C@@H]1O[C@@H](OC[C@H]2O[C@@H](Oc3c(-c4ccc(O)c(O)c4)oc4cc(O)cc(O)c4c3=O)[C@H](O)[C@@H](O)[C@@H]2O)[C@H](O)[C@H](O)[C@H]1O` [rutin, quercetin-3-O-rutinoside], the remaining activity at 100 µM in assay [1] (setting [5]) worked out at 90 ± 6%; in assay [1] (setting [6]), 92 ± 4%. Further, the “α (Kic/Kiu)” value in assay [1] (setting [7]) was 0.28 ± 0.12. Moreover, the figures for the IC50 in assay [1] (setting [8]), in assay [1] (setting [12]) and in assay [2] (ref Souza Schmidt Gonçalves et al. (2010)) were 770 µM, 1540 ± 855 µM and 1.2 µM, respectively. Moreover, the Ki in assay [1] (setting [9]) was 360 µM; in assay [1] (setting [10]) it was 1560 µM; in assay [1] (setting [11]), 354 ± 55 µM; in assay [1] (setting [13]), 1560 ± 872 µM; in assay [2] (ref Li et al. (2009)), 8.96 µM. Further, the “inhibition mechanism suggested by Kic/Kiu ratios” value in assay [1] is “preferentially bind to the enzyme”. Also, the inhibition type result in assay [1] (substrate starch, ITC) was “mixed”.
For `O=C(CCc1ccc(O)cc1)c1c(O)cc(O)cc1O[C@@H]1O[C@H](CO)[C@@H](O)[C@H](O)[C@H]1O` [PHL, phlorizin], the remaining activity at 100 µM in assay [1] (setting [5]) came to 83 ± 4%; in assay [1] (setting [6]) it was 89 ± 7%. Moreover, the “α (Kic/Kiu)” value in assay [1] (setting [7]) is 0.76 ± 0.08. In addition, the IC50 in assay [1] (setting [8]) is 504 µM; in assay [1] (setting [12]) it was 572 ± 145 µM; in assay [3], 391 µM. For the same molecule, the Ki in assay [1] (setting [9]) was 412 µM; in assay [1] (setting [10]), 573 µM; in assay [1] (setting [11]), 418 ± 127 µM; in assay [1] (setting [13]), 573 ± 145 µM; in assay [3] (read-out: Kic), 151 µM; in assay [3] (read-out: Kiu) it was 391 µM. Further, the inhibition type entry in assay [1] (substrate starch, ITC) was “mixed”. The “IC50 [μM]” value in assay [4] (ref Li et al. (2019)) is listed as “–”. Besides, the “Kic [μM]” value in assay [4] (ref Li et al. (2019)) is on record as “–”. Also, in assay [4] (ref Li et al. (2019)), the “Kiu [μM]” value is “–”.
`Oc1cc(O)c2c(c1)O[C@H](c1ccc(O)c(O)c1)[C@H](O)C2` [EC, (−)-epicatechin]: the figures for the remaining activity at 100 µM in assay [1] (setting [5]) and in assay [1] (setting [6]) were 82 ± 8% and 78 ± 4%, respectively. Moreover, the “α (Kic/Kiu)” value in assay [1] (setting [7]) is 0.74 ± 0.10. For the same molecule, the results for the IC50 in assay [1] (setting [8]) and in assay [1] (setting [12]) were 482 µM and 385 ± 82 µM, respectively. The Ki was 379 µM in assay [1] (setting [9]), 517 µM in assay [1] (setting [10]), 253 ± 47 µM in assay [1] (setting [11]) and 385 ± 82 µM in assay [1] (setting [13]). Also, the “inhibition mechanism suggested by Kic/Kiu ratios” value in assay [1] is recorded as “preferentially bind to the enzyme”.
Turning to `Oc1cc(O)c2c(c1)O[C@H](c1ccc(O)c(O)c1)[C@H](O)[C@H]2c1c(O)cc(O)c2c1O[C@H](c1ccc(O)c(O)c1)[C@H](O)C2` [PC B2, procyanidin B2], the “reversibility of inhibition (from ΔRHapp)” value in assay [1] (100 μM polyphenol (EGCG 25 μM)) was “irreversible aggregation”. The remaining activity at 100 µM in assay [1] (setting [5]) was determined as 56 ± 4%; in assay [1] (setting [6]) it was 62 ± 4%. Further, the “α (Kic/Kiu)” value in assay [1] (setting [7]) was 0.94 ± 0.13. Moreover, the IC50 in assay [1] (setting [8]) was 121 µM; in assay [1] (setting [12]) it was 173 ± 26 µM. For the same molecule, the Ki was 121 µM in assay [1] (setting [9]), 121 µM in assay [1] (setting [10]), 177 ± 39 µM in assay [1] (setting [11]) and 173 ± 26 µM in assay [1] (setting [13]).
Turning to `OC[C@H]1O[C@@H](Oc2cc3c(O)cc(O)cc3[o+]c2-c2ccc(O)c(O)c2)[C@H](O)[C@@H](O)[C@@H]1O` [CYD-3-glc, cyanidin-3-O-glucoside], the figures for the remaining activity at 100 µM in assay [1] (setting [5]) and in assay [1] (setting [6]) were 74 ± 10% and 65 ± 4%, respectively. In addition, the “α (Kic/Kiu)” value in assay [1] (setting [7]) is recorded as 0.71 ± 0.05. Further, the Ki in assay [1] (setting [9]) is 156 µM; in assay [1] (setting [10]) it was 223 µM; in assay [1] (setting [11]), 143 ± 30 µM; in assay [1] (setting [13]), 201 ± 34 µM; in assay [2] (ref Sui et al. (2016)), 140 µM; in assay [4] (ref Le et al. (2024), read-out: Kic), 390 µM. The Ki in assay [4] (ref Le et al. (2024), read-out: Kiu) is 210 µM. Further, the “inhibition mechanism suggested by Kic/Kiu ratios” value in assay [1] is on record as “preferentially bind to the enzyme”. Besides, the inhibition type result in assay [1] (substrate starch, ITC) is reported as “mixed”. Moreover, the IC50 in assay [1] (setting [12]) was 200 ± 34 µM; in assay [2] (ref Akkarachiyasit et al., (2010)), 300 µM; in assay [2] (ref Sui et al. (2016)), 240 µM; in assay [4] (ref Le et al. (2024)) it was 340 µM.
For `Oc1cc(O)c2c(c1)O[C@H](c1ccc(O)c(O)c1)[C@@H](O)C2` [CAT, (+)-catechin], in assay [1] (setting [7]), the “IC50” value is 120 ± 50 µg/mL, the “Kic” value was 0.10 ± 0.06 g/L, the “Kiu” value was 0.14 ± 0.06 g/L and the “α (Kic/Kiu)” value was 0.75 ± 0.40.
Consider `O=c1c(O[C@@H]2O[C@H](CO)[C@@H](O)[C@H](O)[C@H]2O)c(-c2ccc(O)c(O)c2)oc2cc(O)cc(O)c12` [Q-3-glc, quercetin-3-O-glucoside], for which the remaining activity at 100 µM in assay [1] (setting [5]) amounted to 72 ± 9%; in assay [1] (setting [6]) it was 63 ± 4%. Besides, in assay [1] (setting [7]), the “α (Kic/Kiu)” value was 0.65 ± 0.07. For the same molecule, the results for the IC50 in assay [1] (setting [8]) and in assay [1] (setting [12]) were 151 µM and 178 ± 28 µM, respectively. Also, the Ki is 108 µM in assay [1] (setting [9]); 172 µM in assay [1] (setting [10]); 115 ± 16 µM in assay [1] (setting [11]); 179 ± 28 µM in assay [1] (setting [13]); 5.35 µM in assay [2] (ref Li et al. (2009)). Moreover, in assay [1], the “inhibition mechanism suggested by Kic/Kiu ratios” value is recorded as “preferentially bind to the enzyme”. For the same molecule, the inhibition type result in assay [1] (substrate starch, ITC) was “mixed”.
Turning to `Oc1cc(O)c2c(c1)O[C@H](c1ccc(O)c(O)c1)[C@H](O)[C@H]2c1c(O)cc(O)c2c1O[C@H](c1ccc(O)c(O)c1)[C@@H](O)C2` [PC B1, procyanidin B1], the results for the remaining activity at 100 µM in assay [1] (setting [5]) and in assay [1] (setting [6]) were 66 ± 14% and 66 ± 9%, respectively. In assay [1] (setting [7]), the “α (Kic/Kiu)” value is 0.71 ± 0.20. Besides, the values for the IC50 in assay [1] (setting [8]) and in assay [1] (setting [12]) were 190 µM and 219 ± 91 µM, respectively. In addition, the Ki in assay [1] (setting [9]) is 156 µM; in assay [1] (setting [10]), 225 µM; in assay [1] (setting [11]), 155 ± 79 µM; in assay [1] (setting [13]) it was 219 ± 91 µM.

(Values after PMC12810351, “Structure-effect relationship of phenolic compounds on α-amylase inhibition studied by isothermal titration calorimetry” (Current Research in Food Science, 2025).)
